From patent US11912682B2, “Isoindolinone compounds” (Monte Rosa Therapeutics, Inc., priority 2021, dated 2024) come the findings set out here.

In series [1] the target is T1, GSPT1 (Homo sapiens (Human), UniProt P15170+Q96SW2). Put plainly: quantitative proteomics analysis in ABC1 cells. The format is cell-based. To be noted: 100 nM, 6 hr. The protocol: Quantitative Proteomics Analysis: ABC1 cells were treated with either DMSO (2 replicates) or compound 10 at 100 nM (2 replicates) for 6 hr. Proteins were extracted with the PreOmics iST-NHS lysis buffer (#P.O.00030). The samples were then processed using the PreOmics kit following their recommended protocol with minor modifications. In brief, the proteins were reduced, alkylated and digested for 2 h at 37° C. The peptides were then labelled with TMT reagent (1:4; peptide:TMT label) (Thermo Fisher Scientific). After quenching, the peptides were purified, and the 16 samples were combined to a 1:1 ratio. […] Eluted TMT peptides were analyzed on an Orbitrap Eclipse mass spectrometer (Thermo Fisher Scientific). […] Precursors were fragmented by CID at a normalized collision energy (NCE) of 35% and analyzed in the ion trap. Following MS2, synchronous precursor selection (SPS) MS3 scans were collected by using high energy collision-induced dissociation (HCD) and fragments were analyzed using the Orbitrap (NCE 55%, AGC target 1×10^5, maximum injection time 120 ms, resolution 60,000). Protein identification and quantification were performed using Proteome Discoverer 2.4.0.305 with the SEQUEST algorithm and Uniprot human database (2021 Jan. 29, 20614 protein sequences). […] Protein relative quantification was performed using an in-house developed java notebook. […]
Target sequence in this assay (P15170 whole entry): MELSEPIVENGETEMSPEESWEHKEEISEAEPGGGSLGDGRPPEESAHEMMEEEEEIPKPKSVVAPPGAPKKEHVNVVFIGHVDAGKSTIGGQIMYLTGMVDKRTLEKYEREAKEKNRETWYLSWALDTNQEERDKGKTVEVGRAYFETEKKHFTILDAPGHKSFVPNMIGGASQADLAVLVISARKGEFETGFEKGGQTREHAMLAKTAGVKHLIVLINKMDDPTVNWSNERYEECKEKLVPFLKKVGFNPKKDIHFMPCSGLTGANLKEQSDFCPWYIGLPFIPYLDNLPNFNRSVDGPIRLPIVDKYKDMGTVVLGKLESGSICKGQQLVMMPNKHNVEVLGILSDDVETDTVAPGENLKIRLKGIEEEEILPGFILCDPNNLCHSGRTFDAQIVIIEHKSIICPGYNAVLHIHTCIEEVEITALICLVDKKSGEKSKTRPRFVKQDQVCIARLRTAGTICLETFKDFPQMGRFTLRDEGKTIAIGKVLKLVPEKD
Target sequence in this assay (Q96SW2 whole entry): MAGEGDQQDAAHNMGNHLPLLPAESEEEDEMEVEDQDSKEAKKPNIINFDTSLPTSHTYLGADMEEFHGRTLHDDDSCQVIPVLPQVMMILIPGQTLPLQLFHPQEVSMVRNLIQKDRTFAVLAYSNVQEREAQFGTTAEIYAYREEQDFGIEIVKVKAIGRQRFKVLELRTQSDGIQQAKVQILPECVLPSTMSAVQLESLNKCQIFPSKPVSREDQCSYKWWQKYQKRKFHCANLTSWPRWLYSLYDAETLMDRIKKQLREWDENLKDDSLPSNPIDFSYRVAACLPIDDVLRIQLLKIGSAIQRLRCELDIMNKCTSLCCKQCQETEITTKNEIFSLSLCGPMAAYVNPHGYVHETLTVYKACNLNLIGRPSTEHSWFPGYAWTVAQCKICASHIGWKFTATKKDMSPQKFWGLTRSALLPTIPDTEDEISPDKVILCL
Target sequence in this assay (Q16531 2-1140 partner): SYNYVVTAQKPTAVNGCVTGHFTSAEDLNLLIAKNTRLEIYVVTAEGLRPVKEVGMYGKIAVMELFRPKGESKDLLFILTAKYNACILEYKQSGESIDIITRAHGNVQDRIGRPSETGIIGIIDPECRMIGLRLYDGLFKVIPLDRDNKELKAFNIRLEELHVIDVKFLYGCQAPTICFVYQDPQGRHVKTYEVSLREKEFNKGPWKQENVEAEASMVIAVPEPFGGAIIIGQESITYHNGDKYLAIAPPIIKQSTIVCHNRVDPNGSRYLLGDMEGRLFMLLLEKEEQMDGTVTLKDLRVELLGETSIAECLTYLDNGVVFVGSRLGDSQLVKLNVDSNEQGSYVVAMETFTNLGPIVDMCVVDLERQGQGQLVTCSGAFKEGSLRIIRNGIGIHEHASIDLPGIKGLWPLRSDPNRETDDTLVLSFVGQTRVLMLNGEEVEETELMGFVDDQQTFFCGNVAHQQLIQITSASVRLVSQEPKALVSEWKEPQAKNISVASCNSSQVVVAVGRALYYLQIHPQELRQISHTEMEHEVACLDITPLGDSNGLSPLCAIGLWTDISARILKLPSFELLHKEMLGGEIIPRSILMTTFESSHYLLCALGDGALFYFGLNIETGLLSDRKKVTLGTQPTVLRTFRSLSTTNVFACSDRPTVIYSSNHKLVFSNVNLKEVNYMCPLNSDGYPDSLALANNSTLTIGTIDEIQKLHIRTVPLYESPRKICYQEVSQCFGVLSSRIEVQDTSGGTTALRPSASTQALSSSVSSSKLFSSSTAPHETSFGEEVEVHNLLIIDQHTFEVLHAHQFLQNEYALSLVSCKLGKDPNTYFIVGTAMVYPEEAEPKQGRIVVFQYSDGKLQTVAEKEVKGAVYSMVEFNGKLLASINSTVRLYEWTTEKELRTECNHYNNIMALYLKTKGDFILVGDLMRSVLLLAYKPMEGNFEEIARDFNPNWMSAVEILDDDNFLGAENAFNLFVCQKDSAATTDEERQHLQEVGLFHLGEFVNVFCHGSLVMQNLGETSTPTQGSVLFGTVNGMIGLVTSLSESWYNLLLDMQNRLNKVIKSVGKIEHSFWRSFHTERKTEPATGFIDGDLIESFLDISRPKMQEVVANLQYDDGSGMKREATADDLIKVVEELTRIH

Series [2] has as its system NCI-H1155. The experiment in a line: Viability of NSCLC cell line, high N-Myc (FIG. 2A). Type of series: cell-based, human. To be noted: compared to low N-Myc lines EBC-1, NCI-H2023.
The subject of series [3] is human cell line NCI-H526. The experiment in a line: N-Myc-driven mouse xenograft model, NCI-H526 (FIG. 3D). The format is in vivo.
The target in series [4] is GSPT1 (Homo sapiens (Human), UniProt P15170). Put plainly: GSPT1 degradation in tumors of treated mice (FIG. 3B). The format is in vivo, mouse. The note with it: all three dose levels (1, 3, 6 mg/kg), compared to vehicle control.
The target in series [5] is SALL (Homo sapiens (Human), UniProt Q9UJQ4). The experiment in a line: SALL degradation in cells treated with compound (FIG. 1A). The format is cell-based. To be noted: concentrations up to 30 µM.
In series [6] the target is SALL4 (Homo sapiens (Human), UniProt Q9UJQ4). Put plainly: substrate degradation in cells (FIG. 1A), SALL4. The format is cell-based. To be noted: highest concentration tested of 30 μM.
Series [7] concerns the target T1, GSPT1. Put plainly: Mass spectrometry-based proteomics analysis of a treated cancer cell line (FIG. 1B). The note with it: cancer cell line treated with compound; fold-change (log2) vs p-value.
Target sequence in this assay (P15170 whole entry, looked up): as the sequence (P15170 whole entry) above
Target sequence in this assay (Q96SW2 whole entry, looked up): as the sequence (Q96SW2 whole entry) above
Target sequence in this assay (Q16531 whole entry partner, looked up): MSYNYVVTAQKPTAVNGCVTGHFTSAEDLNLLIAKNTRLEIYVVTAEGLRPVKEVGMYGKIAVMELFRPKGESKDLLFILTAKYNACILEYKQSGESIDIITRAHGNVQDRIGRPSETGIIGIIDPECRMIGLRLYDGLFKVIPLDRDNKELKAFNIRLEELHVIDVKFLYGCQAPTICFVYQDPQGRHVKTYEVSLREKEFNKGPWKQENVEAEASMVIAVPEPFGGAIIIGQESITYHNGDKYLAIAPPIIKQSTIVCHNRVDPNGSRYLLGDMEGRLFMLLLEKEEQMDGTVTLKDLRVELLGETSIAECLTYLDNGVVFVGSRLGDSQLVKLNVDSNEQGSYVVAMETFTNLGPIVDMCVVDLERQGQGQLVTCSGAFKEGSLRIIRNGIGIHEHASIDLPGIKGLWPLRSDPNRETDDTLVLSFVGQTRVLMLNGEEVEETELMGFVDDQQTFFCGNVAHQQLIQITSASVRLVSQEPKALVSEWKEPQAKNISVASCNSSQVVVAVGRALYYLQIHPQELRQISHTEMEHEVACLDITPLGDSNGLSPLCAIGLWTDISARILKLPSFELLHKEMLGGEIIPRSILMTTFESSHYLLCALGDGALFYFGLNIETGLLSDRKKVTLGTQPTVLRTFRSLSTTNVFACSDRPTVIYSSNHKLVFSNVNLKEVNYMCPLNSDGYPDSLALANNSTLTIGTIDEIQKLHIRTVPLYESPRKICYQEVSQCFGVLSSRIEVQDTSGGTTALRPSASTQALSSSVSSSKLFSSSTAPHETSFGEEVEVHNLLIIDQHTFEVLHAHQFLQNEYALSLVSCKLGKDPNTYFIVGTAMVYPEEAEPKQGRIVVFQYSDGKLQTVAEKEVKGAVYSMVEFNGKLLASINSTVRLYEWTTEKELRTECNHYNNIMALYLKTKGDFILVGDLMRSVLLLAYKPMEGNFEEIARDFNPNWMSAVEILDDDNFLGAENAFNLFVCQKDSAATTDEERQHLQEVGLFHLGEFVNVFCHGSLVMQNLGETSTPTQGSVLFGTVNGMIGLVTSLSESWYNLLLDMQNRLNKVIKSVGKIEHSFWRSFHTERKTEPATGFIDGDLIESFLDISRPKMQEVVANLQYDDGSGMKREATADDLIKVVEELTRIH

Chain of SALL (Q9UJQ4 whole entry, looked up): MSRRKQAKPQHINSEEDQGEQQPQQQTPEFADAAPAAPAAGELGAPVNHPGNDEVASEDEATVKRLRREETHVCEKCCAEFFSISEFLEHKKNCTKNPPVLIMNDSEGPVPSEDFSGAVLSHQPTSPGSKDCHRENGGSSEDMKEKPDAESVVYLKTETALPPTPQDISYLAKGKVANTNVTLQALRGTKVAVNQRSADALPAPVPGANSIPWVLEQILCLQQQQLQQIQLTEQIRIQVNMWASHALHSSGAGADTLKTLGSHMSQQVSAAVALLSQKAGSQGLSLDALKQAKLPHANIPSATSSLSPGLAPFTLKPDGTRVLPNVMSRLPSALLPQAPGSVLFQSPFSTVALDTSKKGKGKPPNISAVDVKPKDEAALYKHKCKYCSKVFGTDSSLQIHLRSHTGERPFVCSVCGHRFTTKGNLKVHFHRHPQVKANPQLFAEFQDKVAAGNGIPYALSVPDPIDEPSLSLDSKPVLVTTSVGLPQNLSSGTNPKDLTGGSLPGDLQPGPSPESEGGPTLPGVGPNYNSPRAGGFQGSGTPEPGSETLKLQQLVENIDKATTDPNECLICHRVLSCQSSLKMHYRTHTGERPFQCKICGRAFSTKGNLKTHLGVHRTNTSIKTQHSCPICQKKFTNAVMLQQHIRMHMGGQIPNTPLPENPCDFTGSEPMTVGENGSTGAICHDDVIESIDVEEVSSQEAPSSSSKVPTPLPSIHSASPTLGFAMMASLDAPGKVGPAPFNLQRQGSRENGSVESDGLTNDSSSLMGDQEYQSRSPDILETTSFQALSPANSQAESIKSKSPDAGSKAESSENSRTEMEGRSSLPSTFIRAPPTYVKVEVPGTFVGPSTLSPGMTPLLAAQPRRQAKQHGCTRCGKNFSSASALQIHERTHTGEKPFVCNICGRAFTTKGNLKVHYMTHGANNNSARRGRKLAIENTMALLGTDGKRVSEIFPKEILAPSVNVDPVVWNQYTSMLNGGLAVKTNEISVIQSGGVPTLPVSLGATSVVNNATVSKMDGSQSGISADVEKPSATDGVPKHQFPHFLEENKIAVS
Chain of SALL4 (Q9UJQ4 whole entry, looked up): as above
Chain of GSPT1 (Homo sapiens (Human), UniProt P15170) (P15170 whole entry): as the sequence (P15170 whole entry) above
Chain of GSPT1 (Homo sapiens (Human), UniProt P15170) (Q96SW2 whole entry, further chain): as the sequence (Q96SW2 whole entry) above
Chain of GSPT1 (Homo sapiens (Human), UniProt P15170) (Q16531 2-1140 partner): as the sequence (Q16531 2-1140 partner) above

As for `Cc1ccc(NC(=O)OCc2ccc3c(c2)C(=O)N(C2CCC(=O)NC2=O)C3)cc1Cl` (stereo not shown) [Compound 10], in series [1], the “protein downregulation by mass spectrometry-based proteomics (FIG. 1B)” value is recorded as “GSPT1 was the most statistically significant downregulated protein”. Further, the “sensitivity to treatment (viability in %)” value in series [2] is given as “highly sensitive”. Also, in series [3] (3 mg/kg PO once daily), the “tumor size (tumor volume)” value was “tumor size decreased and remained so until the end of the study”. The “tumor size (tumor volume)” value in series [3] (6 mg/kg PO five days on and nine days off) is “tumor size decreased and remained so until the end of the study”. Further, in series [3] (oral administration), the body weight entry is “no body weight loss” and the “effect on tumor growth (tumor volume)” value was “tumor growth inhibition”. In series [4], the “degradation of GSPT1 in tumors” value is “complete degradation”. In addition, the “degradation of SALL” value in series [5] is “no induction of degradation”. The “SALL4 degradation (FIG. 1A)” value in series [6] is listed as “none of the known the substrates IKZF1, IKZF3, SALL4, CK1alpha was degraded”. Also, in series [7], the “GSPT1 protein change in proteomics analysis” value is reported as “most statistically significant downregulated protein”.
